ChEMBL document CHEMBL1201862, “PubChem BioAssay data set” (2004)
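Growth conditions: 96-well plates. Treatment: test compound, 48 hours, 5 concentrations. Analysis: linear interpolation between bracketing concentrations; unreached endpoints set to highest concentration. GI50: concentration for 50% inhibition of growth.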 Active and inactive are the calls of the source. Cut-off read from the data, not from the text of the source: active = GI50 up to about 1.1 µM and inactive = higher.

Key:
Test in all cases: DTP human tumour cell line panel, 48 h
786-0 = system: 786-0
A549 = system: A549
BT-549 = system: BT-549
HCT-116 = system: HCT-116
HT-29 = system: HT-29
Hs-578T = system: Hs-578T
IGROV-1 = system: IGROV-1
KM12 = system: KM12
LOX IMVI = system: LOX IMVI
M14 = system: M14
Malme-3M = system: Malme-3M
OVCAR-3 = system: OVCAR-3
OVCAR-4 = system: OVCAR-4
RPMI-8226 = system: RPMI-8226
SNB-75 = system: SNB-75
SR = system: SR
SW-620 = system: SW-620
U-251 = system: U-251
UACC-62 = system: UACC-62
UO-31 = system: UO-31

Measured: GI50

O=C1N/C(=N\N=C\c2ccccc2)C2(CCCCC2)O1
inactive: 786-0 64.9 µM | A549 54.5 µM | BT-549 > 100 µM | HCT-116 59.2 µM | HT-29 78 µM | Hs-578T 46.8 µM | IGROV-1 > 100 µM | KM12 > 100 µM | LOX IMVI 56.5 µM | M14 > 100 µM | Malme-3M > 100 µM | OVCAR-3 44.9 µM | OVCAR-4 > 100 µM | RPMI-8226 53.5 µM | SNB-75 20.5 µM | SR 16.3 µM | SW-620 > 100 µM | U-251 77.8 µM | UACC-62 > 100 µM | UO-31 43.1 µM

c1ccc(-c2nnn(CCN3CCCCC3)n2)cc1
inactive: 786-0 > 100 µM | A549 > 100 µM | BT-549 > 100 µM | HCT-116 > 100 µM | HT-29 > 100 µM | Hs-578T > 100 µM | IGROV-1 > 100 µM | KM12 > 100 µM | LOX IMVI > 100 µM | M14 > 100 µM | Malme-3M > 100 µM | OVCAR-3 > 100 µM | OVCAR-4 > 100 µM | RPMI-8226 > 100 µM | SNB-75 > 100 µM | SR > 100 µM | SW-620 > 100 µM | U-251 > 100 µM | UACC-62 > 100 µM | UO-31 > 100 µM

CCC(=O)OCOc1ccc(/C=C2\CCC(CN(C)C)C2=O)cc1 (stereo not given)
inactive: 786-0 2.45 µM | A549 18.3 µM | BT-549 2.05 µM | HCT-116 2.74 µM | HT-29 6.31 µM | Hs-578T 6.27 µM | IGROV-1 6.44 µM | KM12 3.9 µM | LOX IMVI 1.94 µM | M14 3.42 µM | Malme-3M 3.96 µM | OVCAR-3 3.7 µM | OVCAR-4 4.09 µM | RPMI-8226 2.43 µM | SNB-75 12.8 µM | SR 2.15 µM | SW-620 2.32 µM | U-251 11.1 µM | UACC-62 4.1 µM | UO-31 7.8 µM

O=C1Nc2ccccc2C1(O)Cc1ccccn1 (stereo not given)
inactive: 786-0 > 100 µM | A549 > 100 µM | BT-549 > 100 µM | HCT-116 > 100 µM | HT-29 > 100 µM | Hs-578T > 100 µM | IGROV-1 > 100 µM | KM12 > 100 µM | LOX IMVI > 100 µM | M14 > 100 µM | Malme-3M > 100 µM | OVCAR-3 > 100 µM | OVCAR-4 > 100 µM | RPMI-8226 > 100 µM | SNB-75 43.1 µM | SR > 100 µM | SW-620 > 100 µM | U-251 > 100 µM | UACC-62 > 100 µM | UO-31 > 100 µM

CC(C)=CCC[C@](C)(O[C@@H]1O[C@H](CO)[C@@H](O)[C@H](O)[C@H]1O)[C@H]1CC[C@]2(C)[C@@H]1[C@H](O)C[C@@H]1[C@@]3(C)CC[C@H](O)C(C)(C)[C@@H]3[C@@H](O[C@@H]3O[C@H](CO)[C@@H](O)[C@H](O)[C@H]3O)C[C@]12C [GINSENOSIDE RG1]
inactive: 786-0 > 100 µM | A549 > 100 µM | BT-549 > 100 µM | HCT-116 > 100 µM | HT-29 > 100 µM | Hs-578T > 100 µM | IGROV-1 > 100 µM | KM12 > 100 µM | LOX IMVI > 100 µM | M14 > 100 µM | Malme-3M > 100 µM | OVCAR-3 > 100 µM | OVCAR-4 > 100 µM | RPMI-8226 > 100 µM | SNB-75 > 100 µM | SR > 100 µM | SW-620 > 100 µM | U-251 > 100 µM | UACC-62 > 100 µM | UO-31 > 100 µM

Cc1ccc2nc(N/N=C/c3cccc(C)n3)cc(C)c2c1
inactive: 786-0 16.2 µM | A549 16 µM | BT-549 18.8 µM | HCT-116 14.7 µM | HT-29 12.3 µM | Hs-578T 23.8 µM | IGROV-1 13.9 µM | KM12 12.7 µM | LOX IMVI 15.1 µM | M14 24.2 µM | Malme-3M 16 µM | OVCAR-3 14 µM | OVCAR-4 16.6 µM | RPMI-8226 14 µM | SNB-75 19.7 µM | SR 16.4 µM | SW-620 17.1 µM | U-251 16.9 µM | UACC-62 15.2 µM | UO-31 19.7 µM

Cc1cccc(NC(=S)Nc2cccc(Cl)c2)n1
inactive: 786-0 > 70.6 µM | A549 > 100 µM | BT-549 > 100 µM | HCT-116 > 100 µM | HT-29 > 100 µM | Hs-578T > 65.3 µM | IGROV-1 44.2 µM | KM12 > 100 µM | LOX IMVI > 100 µM | M14 > 100 µM | Malme-3M > 100 µM | OVCAR-3 > 100 µM | OVCAR-4 > 100 µM | RPMI-8226 > 100 µM | SNB-75 > 54 µM | SR > 100 µM | SW-620 > 100 µM | U-251 47.1 µM | UACC-62 > 75.2 µM | UO-31 > 100 µM
